According to patent publication US20020013314A1, “3,4-dihydro-2H-benzo[1,4]oxazine inhibitors of factor Xa” (priority 2000, published 2002):

Assays:
[1] = biological target: prothrombinase complex (Homo sapiens, UniProt P00742); test: prothrombinase inhibition assay (plasma free system, Chromozym TH); type: biochemical
Procedure: The prothrombinase inhibition assay is performed in a plasma free system with modifications to the method described by Sinha, U. et al., Thromb. […] Specifically, the activity of the prothrombinase complex is determined by measuring the time course of thrombin generation using the p-nitroanilide substrate Chromozym TH. […] Aliquots from the complex-inhibitor mixture are added to prothrombin (1 nM) and Chromozym TH (0.1 mM). […] Eight different concentrations of inhibitor are assayed in duplicate. A standard curve of thrombin generation by an equivalent amount of untreated complex is used for determination of percent inhibition.

[2] = biological target: thrombin (Homo sapiens, UniProt P00734); test: thrombin amidolytic assay (Chromozym TH)
Procedure: (§1) In the assays for thrombin, prothrombinase and factor Xa, a synthetic chromogenic substrate is added to a solution containing test compound and the enzyme of interest and the residual catalytic activity of that enzyme is determined spectrophotometrically. The IC50 of a compound is determined from the substrate turnover. […] The factor Xa and thrombin assays are performed at room temperature, in 0.02 M Tris·HCl buffer, pH 7.5, containing 0.15 M NaCl.

[3] = biological target: factor Xa (Homo sapiens, UniProt P00742); test: factor Xa amidolytic assay (chromogenic substrate S-2765)
Sequence of factor Xa (P00742 41-179 limits assumed): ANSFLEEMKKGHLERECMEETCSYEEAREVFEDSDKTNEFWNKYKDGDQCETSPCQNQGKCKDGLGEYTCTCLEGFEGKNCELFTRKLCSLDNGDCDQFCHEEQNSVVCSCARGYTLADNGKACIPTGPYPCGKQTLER
Sequence of factor Xa (P00742 235-488 limits assumed): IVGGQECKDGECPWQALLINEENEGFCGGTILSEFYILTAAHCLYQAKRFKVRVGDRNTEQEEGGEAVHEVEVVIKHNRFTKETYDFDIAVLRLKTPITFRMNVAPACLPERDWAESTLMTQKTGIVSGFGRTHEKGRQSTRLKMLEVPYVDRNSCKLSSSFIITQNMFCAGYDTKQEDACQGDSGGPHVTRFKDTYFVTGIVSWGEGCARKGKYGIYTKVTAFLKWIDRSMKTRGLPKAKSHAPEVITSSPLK
Procedure: as §1

[4] = Table 3, probe of regiochemistry

Sequence of prothrombinase complex (P00742 41-179 limits assumed): as the sequence (P00742 41-179 limits assumed) above
Sequence of prothrombinase complex (P00742 235-488 limits assumed): as the sequence (P00742 235-488 limits assumed) above
Sequence of prothrombinase complex (P12259 29-737 partner limits assumed): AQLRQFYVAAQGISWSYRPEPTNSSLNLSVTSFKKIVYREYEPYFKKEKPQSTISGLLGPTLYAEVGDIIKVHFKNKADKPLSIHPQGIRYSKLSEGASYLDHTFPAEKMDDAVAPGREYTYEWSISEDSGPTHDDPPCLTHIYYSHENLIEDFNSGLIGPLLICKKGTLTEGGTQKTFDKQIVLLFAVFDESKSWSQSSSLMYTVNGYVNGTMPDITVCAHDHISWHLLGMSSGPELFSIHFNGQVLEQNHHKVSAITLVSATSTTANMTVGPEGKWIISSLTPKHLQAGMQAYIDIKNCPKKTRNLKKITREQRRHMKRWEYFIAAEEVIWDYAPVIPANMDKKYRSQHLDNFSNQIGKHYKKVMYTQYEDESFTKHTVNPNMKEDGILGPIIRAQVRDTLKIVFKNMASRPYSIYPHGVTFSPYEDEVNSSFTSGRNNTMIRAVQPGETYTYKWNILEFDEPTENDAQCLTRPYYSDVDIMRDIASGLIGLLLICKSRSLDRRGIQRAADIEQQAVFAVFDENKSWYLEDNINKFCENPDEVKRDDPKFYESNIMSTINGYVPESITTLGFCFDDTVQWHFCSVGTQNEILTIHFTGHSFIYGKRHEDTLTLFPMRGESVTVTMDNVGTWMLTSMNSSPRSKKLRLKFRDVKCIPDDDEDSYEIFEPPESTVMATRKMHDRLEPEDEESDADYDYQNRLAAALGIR
Sequence of prothrombinase complex (P12259 1574-2224 partner limits assumed): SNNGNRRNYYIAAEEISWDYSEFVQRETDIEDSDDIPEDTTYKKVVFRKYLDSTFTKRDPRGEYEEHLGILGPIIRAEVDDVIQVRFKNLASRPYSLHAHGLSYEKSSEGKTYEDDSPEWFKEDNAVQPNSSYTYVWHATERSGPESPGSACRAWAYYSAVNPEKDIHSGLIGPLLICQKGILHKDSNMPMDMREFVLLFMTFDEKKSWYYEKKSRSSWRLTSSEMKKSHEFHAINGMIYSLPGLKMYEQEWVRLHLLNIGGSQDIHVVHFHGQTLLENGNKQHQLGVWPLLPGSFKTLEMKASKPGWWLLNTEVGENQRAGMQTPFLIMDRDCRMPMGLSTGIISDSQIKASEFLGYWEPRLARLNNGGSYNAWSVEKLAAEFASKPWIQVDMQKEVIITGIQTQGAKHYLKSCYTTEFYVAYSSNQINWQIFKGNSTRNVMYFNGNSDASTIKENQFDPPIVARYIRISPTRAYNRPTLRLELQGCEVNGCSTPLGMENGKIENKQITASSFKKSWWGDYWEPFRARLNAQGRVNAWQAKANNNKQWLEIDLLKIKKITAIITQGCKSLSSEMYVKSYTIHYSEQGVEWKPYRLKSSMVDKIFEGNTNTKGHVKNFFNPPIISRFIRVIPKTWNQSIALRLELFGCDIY

SMILES	IC50 [1, 4]	IC50 [2]	IC50 [3]	IC50 ([1]; Table 5)	IC50 ([1]; Table 6, monoamidine)	IC50 ([1]; Table 4)
N=C(N)c1ccc(C(=O)Nc2ccc3c(c2)OCC(=O)N3Cc2ccc3ccc(C(=N)N)cc3c2)cc1 [Cmpd 31]	–	204 µM	10.1 µM	67500 nM	–	–
N=C(N)c1ccc2ccc(CN3C(=O)COc4cc(NS(=O)(=O)c5cccc6ncccc56)ccc43)cc2c1 [Cmpd 34]	–	109 µM	19.5 µM	364000 nM	–	–
CC(=N)N1CCC(Oc2ccc3c(c2)OCC(=O)N3Cc2cc(-c3cccc(C(=N)N)c3)no2)CC1 [Cmpd 27]	–	250 µM	0.0524 µM	–	–	159 nM
COc1ccc(S(=O)(=O)Nc2ccc3c(c2)OCC(=O)N3Cc2ccc3ccc(C(=N)N)cc3c2)cc1 [Cmpd 33]	–	34.9 µM	38.2 µM	81000 nM	–	–
N=C(N)c1cccc(-c2cccc(CN3C(=O)COc4ccc(-c5ccccc5S(N)(=O)=O)cc43)c2)c1 [Cmpd 37]	–	8.7 µM	0.89 µM	–	3000 nM	–
N=C(N)c1ccc2ccc(CN3C(=O)COc4cc(NS(=O)(=O)c5ccc6cc(Br)ccc6c5)ccc43)cc2c1 [Cmpd 35]	–	83.7 µM	268 µM	98000 nM	–	–
Cc1cc(CN2C(=O)COc3cc(-c4ccccc4S(N)(=O)=O)ccc32)n(-c2cccc(C(=N)N)c2)n1 [Cmpd 38]	–	> 11 µM	> 11 µM	–	> 11000 nM	–

The next lines start with results.

IC50 [1, 4]	IC50 [2]	IC50 [3]	IC50 ([1]; Table 5)	IC50 ([1]; Table 6, monoamidine)	SMILES	IC50 ([1]; Table 4)
214 nM	11 µM	0.0376 µM	–	–	CC(=N)N1CCC(Oc2ccc3c(c2)OCC(=O)N3Cc2cccc(-c3cccc(C(=N)N)c3)c2)CC1 [Cmpd 23]	–
–	334 µM	–	–	–	CC(=N)N1CCC(Oc2ccc3c(c2)OCC(=O)N3Cc2ccc3ccc(C(=N)N)cc3c2)CC1 [Cmpd 24]	–
352 nM	81 µM	0.191 µM	–	–	CC(=N)N1CCC(Oc2ccc3c(c2)N(Cc2ccc4ccc(C(=N)N)cc4c2)C(=O)CO3)CC1 [Cmpd 26]	–
934 nM	5.37 µM	0.344 µM	–	–	CC(=N)N1CCC(Oc2ccc3c(c2)N(Cc2cccc(-c4cccc(C(=N)N)c4)c2)C(=O)CO3)CC1 [Cmpd 25]	–
–	34.5 µM	21.9 µM	55200 nM	–	N=C(N)c1ccc2ccc(CN3C(=O)COc4cc(NS(=O)(=O)c5ccccc5)ccc43)cc2c1 [Cmpd 32]	–
–	26.7 µM	0.068 µM	–	2000 nM	N=C(N)c1ccc2ccc(CN3C(=O)COc4ccc(-c5ccccc5S(N)(=O)=O)cc43)cc2c1 [Cmpd 36]	–
–	–	0.002 µM	–	–	CC(=N)N1CCC(Oc2ccc3c(c2)OCC(=O)N3Cc2cc3ccc(C(=N)N)cc3n2C)CC1 [Cmpd 28]	6.6 nM
